US20220096507A1, “Parenteral Pharmaceutical Composition Comprising Azacitidine or Decitabine in DMSO” (Sandoz AG, priority 2020, published 2022)
Where two headings read alike, the source gives them in different places.

What was measured:
[1] = 250 mg/mL in DMSO, relative to week 0
Protocol: A 250 mg/mL solution of azacitidine (TEVA Sicor) in DMSO (Merck; Ph. Eur. grade quality) with a water content of less than 0.1 wt.-% was prepared and filled into (moisture proof) vials, which were subsequently sealed using rubber stoppers. […] The amount of azacitidine was analyzed using high performance liquid chromatography (HPLC) and comparing the integral of the azacitidine peak with the integral of a freshly prepared standard solution containing a predetermined amount of azacitidine.
HPLC measurements were carried out using an Agilent 1200 system (or equivalent). For detection, a UV detector (235 nm) was used. A YMC Hydrosphere C18 (250 mm*4.6 mm*[…]) column and a flow rate of 1.0 mL/min and a gradient of aq. pH 7 buffer solution (containing disodium hydrogen phosphate, orthophosphoric acid and ammonium formate)/acetonitrile from 100:0 to 40:60 were employed.

[2] = bulk (non-pharmaceutical grade) substance, purity above 95%, Cayman leaflet; cited from earlier work
[3] = at 25° C. in water; cited from earlier work

SMILES | % of azacitidine at 25° C. ([1]; water <0.1 wt.-%, day 0) [%] | % of azacitidine at 40° C. ([1]; water <0.1 wt.-%, day 0) [%] | % of azacitidine at 25° C. ([1]; day 7) [%] | % of azacitidine at 40° C. ([1]; day 7) [%] | % of azacitidine at 25° C. ([1]; day 14) [%] | % of azacitidine at 40° C. ([1]; day 14) [%] | % of azacitidine at 25° C. ([1]; day 21) [%] | % of azacitidine at 40° C. ([1]; day 21) [%] | % of azacitidine at 25° C. ([1]; day 28) [%] | % of azacitidine at 40° C. ([1]; day 28) [%] | % of azacitidine at 25° C. ([1]; day 56) [%] | % of azacitidine at 40° C. ([1]; day 56) [%] | % of azacitidine at 25° C. ([1]; day 98) [%] | % of azacitidine at 40° C. ([1]; day 98) [%] | % of azacitidine at 25° C. ([1]; day 182) [%] | % of azacitidine at 40° C. ([1]; day 182) [%] | solubility in bulk DMSO [2] | solubility of azacitidine in water [3] [mg/mL]
Nc1ncn([C@@H]2O[C@H](CO)[C@@H](O)[C@H]2O)c(=O)n1 [azacitidine, 5-azacytidine] | 100 | 100 | 100 | 100 | 100 | 100 | 100 | 100 | 100 | 100 | 100 | 99 | 100 | 96 | 100 | 94 | approximately 30 mg/mL | 13.4
Nc1ncn([C@H]2C[C@H](O)[C@@H](CO)O2)c(=O)n1 [decitabine, 5-aza-2′-deoxycytidine] | – | – | – | – | – | – | – | – | – | – | – | – | – | – | – | – | approximately 30 mg/mL | –
